From patent publication US20260216239A1 (Arizona Board of Regents on Behalf of the University of …, priority 2020, published 2026)
“Also recorded” adds a separate entry of the source.

Tested on: Pseudonaja textilis venom
Experiment: Thrombelastography in human plasma of venom procoagulant activity after isolated exposure of venom to compounds
Assay type: biochemical
Details: for maximum rate of thrombus generation (MRTG) / total thrombus generation (TTG), clot strength: 100 μM CORM-3, 100 μM RuCl3 or both; for maximum rate of thrombus generation (MRTG) / total thrombus generation (TTG), clot strength / time to maximum rate of thrombus generation (TMRTG): venom 0.1 μg/ml in plasma; for time to maximum rate of thrombus generation (TMRTG): venom exposed 5 min in PBS to 100 μM CORM-3, 100 μM RuCl3 or both
Description: […] A sample of each of these venom mixtures was then placed into human plasma (0.1 μg/ml final concentration of venom), with coagulation determined by thrombelastography until final clot strength stabilized.
All venom solutions without or with chemical additions in isolation were added as a 1% addition to the plasma mix used in our thrombelastographic system (see, Nielsen, V. G.; et al., Biometals 2016, 29, 913-919; Nielsen, V. G.; Losada, P. A. Basic Clin. Pharmacol. Toxicol. 2017, 120, 207-212; Nielsen, V. G.; Frank, N. J. Thromb. Thrombolysis 2019, 47, 533-539; Nielsen, V. G.; Bazzell, C. M. J. Thromb. Thrombolysis 2017, 43, 203-208; Nielsen, V. G.; Matika, R. W. Hum. Exp. Toxicol. 2017, 36, 727-733; Nielsen, V. G.; et al., Toxins 2018, 10, 322; Nielsen, V. G.; et al., Biometals 2018, 31, 51-59; Nielsen, V. G.; Frank, N. et al., Biometals 2018, 31, 951-959; Nielsen, V. G.; et al., Toxins 2019, 11, 94; Nielsen, V. G.; Frank, N. Hum Exp. Toxicol. 2019, 38, 216-226; Nielsen, V. G. J. Thromb. Thrombolysis 2019, 48, 256-262; Nielsen, V. G.; et al., Blood Coagul. Fibrinolysis 2019, 30, 379-384; Nielsen, V. G. J. Thromb. Thrombolysis 2019, 47, 73-79; Gessner, G.; et al., Eur. J. Pharmacol. 2017, 815, 33-41). […] The thrombelastographic model describes coagulation kinetics with the following three variables: time to maximum thrombus generation (TMRTG, minutes—a measure of time to onset of coagulation), maximum rate of thrombus generation (MRTG, dynes/cm^2/s—a measure of the velocity of clot growth) and total thrombus generation (TTG, dynes/cm^2—a measure of clot strength).
The volumes of subsequently described plasmatic and other additives summed to a final volume of 360 μL. Samples were composed of 320 μL of plasma; 16.4 μL of PBS, 20 μL of 200 mM CaCl2), and 3.6 μL of PBS, RuCl3, or venom solution mixture, which were pipetted into a disposable cup in a Thrombelastograph® hemostasis system (Model 5000, Haemonetics Inc., Braintree, MA, USA) at 37° C., and then rapidly mixed by moving the cup up against and then away from the plastic pin five times. The PBS, RuCl3, or venom solution mixtures was always the last constituent added prior to mixing and data collection. The following viscoelastic parameters described previously (see, Nielsen, V. G.; et al., Biometals 2016, 29, 913-919; Nielsen, V. G.; Losada, P. A. Basic Clin. Pharmacol. Toxicol. 2017, 120, 207-212; Nielsen, V. G.; Frank, N. J. Thromb. Thrombolysis 2019, 47, 533-539; Nielsen, V. G.; Bazzell, C. M. J. Thromb. Thrombolysis 2017, 43, 203-208; Nielsen, V. G.; Matika, R. W. Hum. Exp. Toxicol. 2017, 36, 727-733; Nielsen, V. G.; et al., Toxins 2018, 10, 322; Nielsen, V. G.; et al., Biometals 2018, 31, 51-59; Nielsen, V. G.; Frank, N. et al., Biometals 2018, 31, 951-959; Nielsen, V. G.; et al., Toxins 2019, 11, 94; Nielsen, V. G.; Frank, N. Hum Exp. Toxicol. 2019, 38, 216-226; Nielsen, V. G. J. Thromb. Thrombolysis 2019, 48, 256-262; Nielsen, V. G.; et al., Blood Coagul. Fibrinolysis 2019, 30, 379-384; Nielsen, V. G. J. Thromb.

Row | Molecule | procoagulant activity of venom (venom exposed 5 min to 100 μM CORM-2 in 5% human albumin, venom 100 ng/mL in plasma) | procoagulant activity of venom (venom exposed 5 min to 100 μM CORM-2 in PBS, venom 100 ng/mL in plasma) | maximum rate of thrombus generation (MRTG) | total thrombus generation (TTG), clot strength | time to maximum rate of thrombus generation (TMRTG) | procoagulant activity of venom (venom exposed 5 min to 100 μM RuCl3 in PBS, venom 100 ng/mL in plasma (Example III))
1 | [C-]#[O+].[C-]#[O+].[C-]#[O+].[C-]#[O+].[C-]#[O+].[C-]#[O+].[Cl][Ru][Cl].[Cl][Ru][Cl] [CORM-2, tricarbonyldichlororuthenium(II) dimer] | uninhibited | significantly attenuated |  |  |  | 
2 | [Cl][Ru]([Cl])[Cl] [RuCl3, ruthenium(III) chloride] |  |  | significantly decreased; also recorded: decrease | enhanced; also recorded: increase | significantly increased; also recorded: significant increase | significant loss of procoagulant activity
3 | Tricarbonylchloro(glycinato)ruthenium [CORM-3] |  |  | significantly decreased; also recorded: decrease | enhanced; also recorded: increase | significantly increased; also recorded: significant increase | 
